In publication PMC9782510, “Natural Antioxidants, Tyrosinase and Acetylcholinesterase Inhibitors from Cercis glabra Leaves” (Molecules, 2022):

Key:
[1] = PTIO radical scavenging assay
Description: The PTIO radical scavenging activity was assayed by referring to relevant methods. Briefly, PTIO radical solid (3 mg) was dissolved in 20 mL of methanol, and sample solution and PTIO methanol solution (40 µL:160 µL) were added to a 96-well microplate. The absorbance was determined at 585 nm using a microplate reader after 30 min of incubation and the scavenging rate was calculated on the basis of Equation (2). (2) PTIO radical scavenging activity (%) =[1−AS/AC]×100 where AS is the absorbance of the compounds to be tested and AC is the absorbance of the untreated control.

[2] = target: Acetylcholinesterase (AChE) (Electrophorus electricus, UniProt O42275); experiment: Acetylcholinesterase inhibitory activity (ATCI/DTNB); type: biochemical; settings: for inhibition at 1000 µg/mL: read-out: Acetylcholinesterase Inhibition (%)
Description: The experiment of acetylcholinesterase inhibition activity was slightly modified according to the literature [55]. Acetylcholinesterase (AChE) and acetylthiocholine iodide (ATCI) were dissolved in 0.1 M phosphate buffer (pH 8.0). 5,5′-Dithiobis-(2-nitrobenzoic acid) (DTNB) was prepared in 10 mL of 0.1 M phosphate buffer (pH 7.0) with a small amount of NaHCO3. A total of 120 µL of 0.1 M phosphate buffer (pH 8.0), 20 µL of 3 mM DTNB solution, 20 µL of sample solution and 20 µL of AChE (0.2 U/mL) were sequentially added to the 96-well microplate, and the mixture reacted for 10 min at 37 °C. The reaction was started by adding 20 µL of 3 mM ATCI and the mixture was incubated at 37 °C for 20 min. Donepezil was chosen as the positive control. […] (4) Acetylcholinesterase inhibition activity (%) =[1−(AS–Aj)/AC]×100 where As and Aj are the absorbance of the compound to be tested and tested compound blanks, respectively, and AC is the absorbance of the untreated control.

[3] = DPPH radical scavenging assay
Description: The scavenging ability on DPPH radical was conducted based on the method with some modifications. The sample solution and DPPH methanol solution (20 µL:180 µL) were added to a 96-well microplate. L-ascorbic acid was the positive control. The absorbance at 517 nm was measured using a microplate reader after the solution had stood for 30 min at 37 °C under dark conditions. The calculation formula of DPPH radical scavenging activity is consistent with the formula of ABTS radical scavenging activity.

[4] = ABTS radical scavenging assay
Description: The ABTS radical scavenging assay was modified according to the method with slight modifications. Briefly, the ABTS radical cation was obtained by mixing ABTS diammonium salt stock solution (7.4 mM) with potassium persulfate (2.6 mM) in equal proportion and reacting it at 37 °C in darkness for 12–16 h. Before used, the absorbance of light green ABTS radical test solution at 745 nm was controlled to be 0.70 ± 0.02 by diluting with methanol. Sample solution and ABTS methanol solution (10 µL:190 µL) were added to 96-well microplate, and L-ascorbic acid was the positive control. After incubation at 37 °C for 10 min, the absorbance was tested at 745 nm using a microplate reader. Scavenging rate was calculated according to Equation (1). (1) ABTS radical scavenging activity (%) =AC–AS/AC×100 where AC and AS are the absorbance of the blank control and the compounds to be tested, respectively.

[5] = tested on: mushroom tyrosinase; experiment: Mushroom tyrosinase inhibitory activity (L-tyrosine substrate); type: biochemical; settings: for Tyrosinase Inhibition (%): at initial concentration of 1 mg/mL, means ± SEMs; for IC50: read-out: Tyrosinase inhibition IC50
Description: Mushroom tyrosinase (400 U/mL) and L-tyrosine (3 mM) were added separately in 0.05 M potassium phosphate buffer (pH 6.5). A total of 80 µL of potassium phosphate buffer (pH 6.5), 80 µL of L-tyrosine (3 mM) solution, 20 µL of sample solution and 20 µL of mushroom tyrosinase (400 U/mL) were added to a 96-well microplate. The mixture reacted for 1 h at 37 °C. […] The absorbance was measured at 490 nm using a microplate reader and Equation (3) was used to calculate the inhibition rate. (3) Tyrosinase inhibition activity (%) =AC–AS/AC×100
Equation (3) is the absorbance of the test compound and AC is the absorbance of the untreated control.

Acetylcholinesterase (AChE), sequence (O42275 24-633): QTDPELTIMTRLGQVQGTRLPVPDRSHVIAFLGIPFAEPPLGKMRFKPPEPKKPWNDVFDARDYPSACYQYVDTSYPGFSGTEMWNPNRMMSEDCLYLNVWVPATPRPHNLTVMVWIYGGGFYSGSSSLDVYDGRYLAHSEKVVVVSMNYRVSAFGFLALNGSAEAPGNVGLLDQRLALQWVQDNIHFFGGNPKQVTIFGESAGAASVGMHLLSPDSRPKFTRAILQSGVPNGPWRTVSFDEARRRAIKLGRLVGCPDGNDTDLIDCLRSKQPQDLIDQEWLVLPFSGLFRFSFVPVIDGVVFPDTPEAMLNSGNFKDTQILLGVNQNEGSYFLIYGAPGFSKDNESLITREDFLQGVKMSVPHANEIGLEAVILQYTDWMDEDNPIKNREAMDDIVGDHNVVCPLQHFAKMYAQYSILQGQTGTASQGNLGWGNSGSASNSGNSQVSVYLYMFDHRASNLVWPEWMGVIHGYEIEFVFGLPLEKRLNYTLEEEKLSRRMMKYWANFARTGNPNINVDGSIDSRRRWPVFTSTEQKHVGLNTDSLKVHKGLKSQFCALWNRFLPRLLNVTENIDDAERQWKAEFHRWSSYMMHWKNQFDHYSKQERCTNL

With COC(=O)[C@@H](O)[C@H](OC(=O)/C=C/c1ccc(O)cc1)C(=O)OC [Compound 1, (2′S, 3′S)-trans-4-coumaroyltartaric acid dimethyl ester] the IC50 [1] was > 100 mM, the inhibition at 1000 µg/mL [2] was 38.43 ± 0.2% and the IC50 [3] was > 100 mM. The IC50 [4] was > 0.5 mM, the “Tyrosinase Inhibition (%)” value [5] was 53.13 ± 0.65% and the IC50 [5] was 2.63 mM.
For COC(=O)[C@H](O)[C@@H](OC(=O)/C=C/c1ccc(O)cc1)C(=O)O [Compound 2, (2′R, 3′R)-trans-4-coumaroyl-4′-methoxyl-tartaric acid], the IC50 [1] was > 100 mM, the inhibition at 1000 µg/mL [2] was 39.46 ± 0.25% and the IC50 [3] was > 100 mM. The IC50 [4] was > 0.5 mM, the “Tyrosinase Inhibition (%)” value [5] was 53.54 ± 0.90% and the IC50 [5] was 2.59 mM.
For O=c1c(O)c(-c2cc(O)c(O)c(O)c2)oc2cc(O)cc(O)c12 [Compound 3, myricetin], the IC50 [1] was 2.56 mM, the inhibition at 1000 µg/mL [2] was 85.27 ± 0.06% and the IC50 [3] was 0.87 mM. The IC50 [4] was 0.094 mM, the “Tyrosinase Inhibition (%)” value [5] was 60.00 ± 1.49% and the IC50 [5] was 1.39 mM.
In the case of COc1cc(-c2oc3cc(O)cc(O)c3c(=O)c2O)ccc1O [Compound 4, isorhamnetin], the IC50 [1] is reported as 44.3 mM, the inhibition at 1000 µg/mL [2] is reported as 68.13 ± 0.24% and the IC50 [3] is reported as 6.25 mM. The IC50 [4] was > 0.5 mM, the “Tyrosinase Inhibition (%)” value [5] was 44.17 ± 0.85% and the IC50 [5] was 4.69 mM.
Compound O=c1c(O)c(-c2ccc(O)c(O)c2)oc2cc(O)cc(O)c12 [Compound 5, quercetin] has an IC50 [1] of 6.36 mM, an inhibition at 1000 µg/mL [2] of 83.65 ± 0.48% and an IC50 [3] of 0.59 mM. The IC50 [4] was 0.097 mM and the “Tyrosinase Inhibition (%)” value [5] was 77.29 ± 1.52%.
O=c1c(O)c(-c2ccc(O)cc2)oc2cc(O)cc(O)c12 [Compound 6, kaempferol] showed an IC50 [1] of 14.7 mM, an inhibition at 1000 µg/mL [2] of 82.21 ± 0.09% and an IC50 [3] of 0.59 mM. For the same compound, the IC50 [4] was 0.108 mM, the “Tyrosinase Inhibition (%)” value [5] was 57.50 ± 0.82% and the IC50 [5] was 1.69 mM.
In the case of C[C@@H]1O[C@@H](Oc2c(-c3ccc(O)cc3)oc3cc(O)cc(O)c3c2=O)[C@H](O)[C@H](O)[C@H]1O [Compound 7, afzelin], the IC50 [1] is reported as > 100 mM, the IC50 [3] is reported as > 100 mM and the IC50 [4] is reported as > 0.5 mM. The “Tyrosinase Inhibition (%)” value [5] was 32.71 ± 1.51% and the IC50 [5] was 9.24 mM.
In the case of C[C@@H]1O[C@@H](Oc2c(-c3ccc(O)c(O)c3)oc3cc(O)cc(O)c3c2=O)[C@H](O)[C@H](O)[C@H]1O [Compound 8, quercitrin], the IC50 [1] is reported as > 100 mM, the inhibition at 1000 µg/mL [2] is reported as 40.11 ± 0.31% and the IC50 [3] is reported as 6.56 mM. The IC50 [4] was > 0.5 mM, the “Tyrosinase Inhibition (%)” value [5] was 39.17 ± 0.86% and the IC50 [5] was 4.96 mM.
For C[C@@H]1O[C@@H](Oc2c(-c3cc(O)c(O)c(O)c3)oc3cc(Oc4cc(O)c5c(=O)c(O[C@@H]6O[C@@H](C)[C@H](O)[C@@H](O)[C@H]6O)c(-c6cc(O)c(O)c(O)c6)oc5c4)cc(O)c3c2=O)[C@H](O)[C@H](O)[C@H]1O [Compound 10, myricetin-3-O-rhamnoside-(C7-I-O-C7-II)-myricetin-3-O-rhamnoside], the IC50 [1] was 0.53 mM, the inhibition at 1000 µg/mL [2] was 61.3 ± 0.38% and the IC50 [3] was 0.56 mM. For the same compound, the IC50 [4] was 0.045 mM, the “Tyrosinase Inhibition (%)” value [5] was 66.04 ± 0.62% and the IC50 [5] was 0.65 mM.
For CC[C@H](CC[C@@H](C)[C@H]1CC[C@H]2[C@@H]3CC=C4C[C@@H](O[C@@H]5O[C@H](CO)[C@@H](O)[C@H](O)[C@H]5O)CC[C@]4(C)[C@H]3CC[C@]12C)C(C)C [Compound 11], the IC50 [1] was > 100 mM, the inhibition at 1000 µg/mL [2] was 40.8 ± 0.41% and the IC50 [3] was > 100 mM. The IC50 [4] was > 0.5 mM, the “Tyrosinase Inhibition (%)” value [5] was 29.79 ± 0.88% and the IC50 [5] was 8.84 mM.
In the case of CC(=O)CCc1ccc(O[C@@H]2O[C@H](CO)[C@@H](O)[C@H](O)[C@H]2O)cc1 [Compound 12, 4-(4′-Hydroxyphenyl)-2-butanone-4′-O-β-D-glucopyranoside], the IC50 [1] is reported as > 100 mM, the inhibition at 1000 µg/mL [2] is reported as 39.8 ± 0.53% and the IC50 [3] is reported as 34.9 mM. For the same compound, the IC50 [4] was > 0.5 mM, the “Tyrosinase Inhibition (%)” value [5] was 35.63 ± 1.01% and the IC50 [5] was 7.47 mM.
In the case of O=C(O)c1cc(O)c(O)c(O)c1 [Compound 13, gallic acid], the IC50 [1] is reported as > 100 mM, the inhibition at 1000 µg/mL [2] is reported as 71.74 ± 0.4% and the IC50 [3] is reported as 0.77 mM. For the same compound, the IC50 [4] was 0.179 mM, the “Tyrosinase Inhibition (%)” value [5] was 80.00 ± 0.78% and the IC50 [5] was 0.59 mM.
In the case of COC(=O)C[C@H]1CCC(=O)[C@H]1C/C=C\CCO[C@@H]1O[C@H](CO)[C@@H](O)[C@H](O)[C@H]1O [Compound 14, methyl-β-D-glucopyranosyl tuberonate], the IC50 [1] is reported as > 100 mM, the inhibition at 1000 µg/mL [2] is reported as 47.18 ± 0.16% and the IC50 [3] is reported as > 100 mM. For the same compound, the IC50 [4] was > 0.5 mM and the “Tyrosinase Inhibition (%)” value [5] was 37.71 ± 0.56%.
For O=C1c2c(O[C@@H]3O[C@H](CO)[C@@H](O)[C@H](O)[C@H]3O)cc(O)cc2OC1(O)Cc1ccc(O)cc1 (stereo partly drawn) [Compound 15, hovetrichoside C], the IC50 [1] was > 100 mM, the inhibition at 1000 µg/mL [2] was 39.91 ± 0.36% and the IC50 [3] was > 100 mM. The IC50 [4] was > 0.5 mM, the “Tyrosinase Inhibition (%)” value [5] was 42.08 ± 0.54% and the IC50 [5] was 4.04 mM.
Compound O=C1O[C@H]([C@@H](O)CO)C(O)=C1O [L-ascorbic acid, reference compound] has an IC50 [1] of 1.61 mM, an IC50 [3] of 0.44 mM and an IC50 [4] of 0.156 mM.
With kaempferol-3-O-rutinoside [Compound 9] the IC50 [1] was 27.6 mM, the “Acetylcholinesterase Inhibition (%)” value ([2]; at initial concentration of 1 mg/mL, means ± SEMs) was 39.90 ± 0.33% and the IC50 ([2]; read-out: Acetylcholinesterase inhibition IC50) was > 1 mM. For the same compound, the IC50 [3] was > 100 mM, the IC50 [4] was > 0.5 mM and the “Tyrosinase Inhibition (%)” value [5] was 23.54 ± 1.04%.
